In publication PMC7408547, “Bivalent Inhibitor with Selectivity for Trimeric MMP-9 Amplifies Neutrophil Chemotaxis and Enables Functional Studies on MMP-9 Proteoforms” (Cells, 2020):
Where two headings read alike, the source gives them in different places.

Experiments:
Format in all cases: biochemical
[1] = target: T1, recombinant human MMP-9 monomers (Homo sapiens, UniProt P14780); experiment: Fluorogenic peptide (OmniMMP) degradation assay, recombinant MMP-9 monomers; settings: recombinant human MMP-9 (Sf9) mono
T1 construct: made in house; host or cells: Sf9 insect cells
T1 sequence (P14780 107-707 limits assumed): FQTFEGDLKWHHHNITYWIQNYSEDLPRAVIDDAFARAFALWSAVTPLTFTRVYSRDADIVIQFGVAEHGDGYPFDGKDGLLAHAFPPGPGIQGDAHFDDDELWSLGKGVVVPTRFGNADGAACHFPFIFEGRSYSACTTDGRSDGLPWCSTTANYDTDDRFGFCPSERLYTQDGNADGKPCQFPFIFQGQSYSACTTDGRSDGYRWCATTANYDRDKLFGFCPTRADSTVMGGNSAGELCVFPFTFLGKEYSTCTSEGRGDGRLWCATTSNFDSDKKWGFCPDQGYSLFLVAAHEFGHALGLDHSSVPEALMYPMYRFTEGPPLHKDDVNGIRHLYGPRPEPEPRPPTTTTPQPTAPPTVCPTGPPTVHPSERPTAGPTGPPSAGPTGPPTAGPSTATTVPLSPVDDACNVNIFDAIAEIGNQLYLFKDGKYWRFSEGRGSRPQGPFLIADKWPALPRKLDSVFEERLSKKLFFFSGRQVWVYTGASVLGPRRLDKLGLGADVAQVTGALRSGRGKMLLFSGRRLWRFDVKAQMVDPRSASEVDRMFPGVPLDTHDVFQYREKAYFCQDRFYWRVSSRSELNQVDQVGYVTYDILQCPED
Experimental: (§1) Compounds 5 and 7 were synthesized as previously reported. Full-length human proMMP-9 was produced by recombinant expression in Sf9 insect cells and purified by gelatin-Sepharose chromatography as previously described. Stable full-length proMMP-9 monomers and trimers were separated by glycerol gradient ultracentrifugation as previously described. ProMMP-9 mixture and the separated monomers and trimers were activated by incubation with the catalytic domain of MMP-3 (cat. No. 444217, Merck Millipore, Darmstadt, Germany) as previously described. Activation of proMMP-9 was confirmed by a band shift of ±10 kDa, corresponding to the removal of the auto-inhibitory propeptide domain and by detection of gelatinolytic activity with a previously described gelatin degradation assay. MMP-9 monomers and trimers purified from human neutrophils were purchased (Cat. No. 444,231 and 444232, Sigma-Aldrich, St. Louis, MO, USA). Examples of sample purities and activations can be found in Supplementary Figure S1. Recombinant human proMMP-2 (CHO cell-derived), proMMP-3 (NS0 cell-derived), proMMP-7 (NS0 cell-derived) and proMMP-8 (NS0 cell-derived) were purchased from R & D systems (Minneapolis, MN, USA), dissolved in assay buffer (150 mM NaCl, 5 mM CaCl2, 0.01% Tween-20, 50 mM Tris, pH 7.4) to a concentration of 100 µg/mL and activated by incubation with 1 mM p-aminophenylmercuric acetate for, respectively, 1h, 6h, 2h and 1h. Activation of MMPs was confirmed by a band shift of approximately 10 kDa, corresponding to the removal of the propeptide domain. MMP-14/MT1-MMP (NS0 cell-derived) was also purchased from R & D systems (Minneapolis, MN, USA) and activated by incubation with recombinant human furin (cat. No. 1503-SE-010, R & D systems, Minneapolis, MO, USA) in activation buffer (50 mM Tris, 1 mM CaCl2, 0.5% Brij-35, pH 9) for 1.5 h and activity was tested in assay buffer (50 mM Tris, 3 mM CaCl2, 1 µM ZnCl2, pH 8.5). Active human neutrophil elastase (NE) was purchased from Abcam (Cambridge, UK) and for activity assays of NE the assay buffer was replaced by 200 mM Tris, pH 8.8. ADAM17/TACE (Sf 21 (baculovirus)-derived, R & D systems, Minneapolis, MO, USA) was diluted and evaluated in 25 mM Tris, 2.5 μM ZnCl2, 0.005% Brij-35, pH 9.0. All stocks of the compounds were evaluated for the presence of endotoxin using the EndoZyme II assay (Hyglos bioMérieux, Bernried am Starnberger See, Germany). Endotoxin levels in all concentrated stocks (2.5 mg/mL) were below the accepted limit of 0.5 EU/mL.
To determine the inhibition of gelatinolytic activity, we used a previously optimized gelatin degradation assay. […] […] […] BML-P126-0001, Enzo Life Sciences, Farmingdale, NY, USA) was used at a final concentration of 2.5 µg/mL. For ADAM17 the fluorogenic peptide Mca-PLAQAV-Dpa-RSSSR-NH2 (ES003, R & D systems, Minneapolis, MO, USA) and for neutrophil elastase the fluorogenic substrate MeOSuc-AAPV-AMC (cat. no. 324740, Merck Millipore, Darmstadt, Germany) were used. Proteolytic activity was determined by linear regression of the fluorescence curve and the percentage inhibition was calculated through comparison with the positive control (no inhibitors). When testing supernatants from human neutrophils, the assay was performed in the presence of 20 µM neutrophil elastase inhibitor (Elastase Inhibitor IV, Calbiochem, Darmstadt, Germany).

neutrophil elastase = target: T2, neutrophil elastase (Homo sapiens, UniProt P08246); experiment: Neutrophil elastase activity assay (fluorogenic elastase peptide and gelatin); settings: fluorogenic elastase substrate and gelatin; tested up to an inhibitor concentration of 50 µM
T2 construct: Active human neutrophil elastase (NE) was purchased from Abcam; purchased Abcam
T2 sequence (P08246 30-267): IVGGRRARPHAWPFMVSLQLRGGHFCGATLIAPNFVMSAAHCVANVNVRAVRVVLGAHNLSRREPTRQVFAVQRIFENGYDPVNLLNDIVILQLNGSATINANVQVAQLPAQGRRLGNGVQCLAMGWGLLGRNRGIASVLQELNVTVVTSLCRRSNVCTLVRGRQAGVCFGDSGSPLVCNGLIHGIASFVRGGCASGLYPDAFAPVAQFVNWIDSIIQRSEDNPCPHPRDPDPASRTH
Experimental: (§2) Compounds 5 and 7 were synthesized as previously reported. Full-length human proMMP-9 was produced by recombinant expression in Sf9 insect cells and purified by gelatin-Sepharose chromatography as previously described. Stable full-length proMMP-9 monomers and trimers were separated by glycerol gradient ultracentrifugation as previously described. ProMMP-9 mixture and the separated monomers and trimers were activated by incubation with the catalytic domain of MMP-3 (cat. No. 444217, Merck Millipore, Darmstadt, Germany) as previously described. […] ADAM17/TACE (Sf 21 (baculovirus)-derived, R & D systems, Minneapolis, MO, USA) was diluted and evaluated in 25 mM Tris, 2.5 μM ZnCl2, 0.005% Brij-35, pH 9.0. All stocks of the compounds were evaluated for the presence of endotoxin using the EndoZyme II assay (Hyglos bioMérieux, Bernried am Starnberger See, Germany). […]
(§3) To determine the inhibition of gelatinolytic activity, we used a previously optimized gelatin degradation assay. […] Next, dye-quenched gelatin (DQ™-gelatin, Invitrogen, Carlsbad, CA, USA) was added at a final concentration of 2.5 µg/mL and the increase in fluorescence over time was measured with the CLARIOstar microplate reader (BMG Labtech, Ortenberg, Germany). […]

[2] = target: T3, MMP-8/neutrophil collagenase (Homo sapiens, UniProt P22894); experiment: MMP-8 OmniMMP peptide assay; settings: for IC50: OmniMMP substrate peptide
T3 construct: purchased R & D systems; host or cells: NS0 cells
T3 sequence (P22894 101-467): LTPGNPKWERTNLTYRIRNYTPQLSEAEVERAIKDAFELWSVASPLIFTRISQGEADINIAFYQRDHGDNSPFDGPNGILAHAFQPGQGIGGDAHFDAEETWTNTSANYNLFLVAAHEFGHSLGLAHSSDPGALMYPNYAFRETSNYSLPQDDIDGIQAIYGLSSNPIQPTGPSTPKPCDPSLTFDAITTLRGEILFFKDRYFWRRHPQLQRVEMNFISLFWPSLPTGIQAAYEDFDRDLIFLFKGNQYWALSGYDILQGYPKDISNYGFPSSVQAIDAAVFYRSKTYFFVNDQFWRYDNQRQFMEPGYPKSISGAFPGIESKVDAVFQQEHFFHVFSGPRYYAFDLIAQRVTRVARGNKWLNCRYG
Experimental: Compounds 5 and 7 were synthesized as previously reported. Full-length human proMMP-9 was produced by recombinant expression in Sf9 insect cells and purified by gelatin-Sepharose chromatography as previously described. Stable full-length proMMP-9 monomers and trimers were separated by glycerol gradient ultracentrifugation as previously described. ProMMP-9 mixture and the separated monomers and trimers were activated by incubation with the catalytic domain of MMP-3 (cat. No. 444217, Merck Millipore, Darmstadt, Germany) as previously described. Activation of proMMP-9 was confirmed by a band shift of ±10 kDa, corresponding to the removal of the auto-inhibitory propeptide domain and by detection of gelatinolytic activity with a previously described gelatin degradation assay. MMP-9 monomers and trimers purified from human neutrophils were purchased (Cat. No. 444,231 and 444232, Sigma-Aldrich, St. Louis, MO, USA). Examples of sample purities and activations can be found in Supplementary Figure S1. […] ADAM17/TACE (Sf 21 (baculovirus)-derived, R & D systems, Minneapolis, MO, USA) was diluted and evaluated in 25 mM Tris, 2.5 μM ZnCl2, 0.005% Brij-35, pH 9.0. All stocks of the compounds were evaluated for the presence of endotoxin using the EndoZyme II assay (Hyglos bioMérieux, Bernried am Starnberger See, Germany). […]
(§4) To determine the inhibition of gelatinolytic activity, we used a previously optimized gelatin degradation assay. […] Next, dye-quenched gelatin (DQ™-gelatin, Invitrogen, Carlsbad, CA, USA) was added at a final concentration of 2.5 µg/mL and the increase in fluorescence over time was measured with the CLARIOstar microplate reader (BMG Labtech, Ortenberg, Germany). […] Proteolytic activity was determined by linear regression of the fluorescence curve and the percentage inhibition was calculated through comparison with the positive control (no inhibitors). […]

MMP-14/MT1-MMP = target: T4, MMP-14/MT1-MMP (Homo sapiens, UniProt P50281); experiment: MMP-14 OmniMMP peptide assay
T4 construct: purchased R & D systems; host or cells: NS0 cells
Experimental: as §1, with “Active human neutrophil elastase (NE) was purchased from Abcam (Cambridge, UK) and for activity assays of NE the assay buffer was replaced by 200 mM Tris, pH 8.8.” left out, “Endotoxin levels in all concentrated stocks (2.5 mg/mL) were below the accepted limit of 0.5 EU/mL.” left out
as §4

MMP-7 = target: T5, MMP-7 (Homo sapiens, UniProt P09237); experiment: MMP-7 OmniMMP peptide assay; settings: OmniMMP substrate peptide
T5 construct: purchased R & D systems; host or cells: NS0 cells
T5 sequence (P09237 95-267): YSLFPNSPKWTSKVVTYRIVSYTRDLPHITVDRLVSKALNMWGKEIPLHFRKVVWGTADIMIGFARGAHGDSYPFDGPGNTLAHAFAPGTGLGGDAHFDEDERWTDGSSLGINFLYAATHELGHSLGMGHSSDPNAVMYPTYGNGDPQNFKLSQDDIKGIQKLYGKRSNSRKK
Experimental: as §2, §3

MMP-3 = target: T6, MMP-3 (Homo sapiens, UniProt P08254); experiment: MMP-3 OmniMMP peptide assay; settings: OmniMMP substrate peptide
T6 construct: purchased R & D systems; host or cells: NS0 cells
T6 sequence (P08254 100-477): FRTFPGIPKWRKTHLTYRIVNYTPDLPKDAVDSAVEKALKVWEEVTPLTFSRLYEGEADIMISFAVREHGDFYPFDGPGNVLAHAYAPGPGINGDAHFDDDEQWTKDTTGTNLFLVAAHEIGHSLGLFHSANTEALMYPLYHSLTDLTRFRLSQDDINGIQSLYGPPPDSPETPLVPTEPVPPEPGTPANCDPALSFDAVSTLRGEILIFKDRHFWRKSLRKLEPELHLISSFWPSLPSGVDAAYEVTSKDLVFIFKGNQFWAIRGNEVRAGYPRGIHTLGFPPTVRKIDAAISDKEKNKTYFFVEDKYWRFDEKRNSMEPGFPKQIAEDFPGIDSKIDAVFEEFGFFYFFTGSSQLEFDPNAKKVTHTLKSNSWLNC
Experimental: as §2, §3

Structure (SMILES) | IC25 [1] [µM] | IC50 [1] [µM] | IC75 [1] [µM] | IC50 (neutrophil elastase) | IC50 [2] [µM] | IC50 (MMP-14/MT1-MMP) [µM] | IC50 (MMP-14/MT1-MMP; OmniMMP substrate peptide) [µM] | IC50 (MMP-7) [µM] | IC50 (MMP-3) [µM] | fold less inhibition of MMP-8 than of trimeric MMP-9 ([2]; peptide substrate)
CC(C)[C@H](C(=O)O)N(CCNC(=O)c1ccccc1)S(=O)(=O)c1ccc(-c2ccccc2)cc1 [Compound 5] | 0.232 | 0.718 | 2.228 | no inhibition ^† | 0.331 | > 1 | 14.8 | > 10 | 0.965 | 
CC(C)[C@H](C(=O)O)N(CCNC(=O)c1cccc(C(=O)NCCN([C@@H](C(=O)O)C(C)C)S(=O)(=O)c2ccc(-c3ccccc3)cc2)c1)S(=O)(=O)c1ccc(-c2ccccc2)cc1 [Compound 7] | 0.0105 | 0.056 | 0.296 | no inhibition ^† | 0.0145 | > 1 | 1.08 | > 10 | 0.0077 | more than 100 fold
